Target: T1, ΔF508-CFTR (Homo sapiens, UniProt P13569, DEL508-508)
T1 construct: expressed in transfected cells
Assay: Membrane potential optical (FRET/VIPR) assay, identification of potentiator compounds
Type: cell-based
Details: Table 3, assay not given; for % Activity: relative efficacy
How it was run: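 Double-addition potentiator screen: compound delivered in gluconate-substituted Cl^--free medium, membrane potential followed via CC2-DMPE/DiSBAC2(3) FRET on VIPR. Cells were ΔF508-CFTR-expressing NIH3T3 mouse fibroblasts, held 2 h at 37° C. then 24 h at 27° C. before assay.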

T1 sequence (P13569 with tags, fused parts or gaps DEL508-508): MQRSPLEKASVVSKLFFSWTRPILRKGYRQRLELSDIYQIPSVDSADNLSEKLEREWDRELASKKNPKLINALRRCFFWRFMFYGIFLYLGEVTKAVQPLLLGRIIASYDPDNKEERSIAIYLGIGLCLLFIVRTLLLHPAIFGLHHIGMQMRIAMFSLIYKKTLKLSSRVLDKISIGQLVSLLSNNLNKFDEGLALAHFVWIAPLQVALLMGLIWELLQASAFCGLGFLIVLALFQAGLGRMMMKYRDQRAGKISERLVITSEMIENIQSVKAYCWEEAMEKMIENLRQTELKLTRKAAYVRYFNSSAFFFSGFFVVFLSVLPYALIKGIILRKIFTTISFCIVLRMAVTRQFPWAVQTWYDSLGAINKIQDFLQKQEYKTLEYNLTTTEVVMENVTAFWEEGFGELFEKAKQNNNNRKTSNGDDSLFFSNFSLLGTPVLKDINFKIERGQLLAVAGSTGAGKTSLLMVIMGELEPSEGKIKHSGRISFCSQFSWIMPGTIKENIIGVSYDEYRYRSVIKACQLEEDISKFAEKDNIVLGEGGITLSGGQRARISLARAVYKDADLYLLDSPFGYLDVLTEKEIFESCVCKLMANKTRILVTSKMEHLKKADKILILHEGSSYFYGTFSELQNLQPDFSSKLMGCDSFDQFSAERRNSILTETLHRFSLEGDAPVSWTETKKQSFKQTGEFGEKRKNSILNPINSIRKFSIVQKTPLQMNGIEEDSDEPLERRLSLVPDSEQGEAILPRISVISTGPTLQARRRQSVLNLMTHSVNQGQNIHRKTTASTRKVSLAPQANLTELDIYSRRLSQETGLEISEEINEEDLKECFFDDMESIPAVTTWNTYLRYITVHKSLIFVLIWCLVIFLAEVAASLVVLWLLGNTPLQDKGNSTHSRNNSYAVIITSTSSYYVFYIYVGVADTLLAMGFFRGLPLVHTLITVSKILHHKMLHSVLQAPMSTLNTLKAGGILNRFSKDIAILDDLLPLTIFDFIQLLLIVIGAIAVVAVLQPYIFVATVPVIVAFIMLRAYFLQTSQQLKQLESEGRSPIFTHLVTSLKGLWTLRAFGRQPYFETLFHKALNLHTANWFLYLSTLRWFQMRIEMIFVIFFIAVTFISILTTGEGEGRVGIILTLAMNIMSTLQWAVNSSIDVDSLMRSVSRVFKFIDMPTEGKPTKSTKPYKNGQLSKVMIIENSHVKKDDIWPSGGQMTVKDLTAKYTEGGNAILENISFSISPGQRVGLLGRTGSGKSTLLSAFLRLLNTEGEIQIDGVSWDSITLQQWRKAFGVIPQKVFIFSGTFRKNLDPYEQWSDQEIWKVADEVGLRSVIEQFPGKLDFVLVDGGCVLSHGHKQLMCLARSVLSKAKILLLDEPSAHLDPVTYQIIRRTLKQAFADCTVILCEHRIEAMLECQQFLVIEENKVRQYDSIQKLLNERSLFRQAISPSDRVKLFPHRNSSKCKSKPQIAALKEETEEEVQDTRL

EC50 [µM]	% Activity	SMILES
< 10	++ (between 25% to 100%)	CC(C)c1ccc(NC(=O)c2c[nH]c3ccc(F)cc3c2=O)c(C(F)(F)F)c1 [Compound 557, 6-fluoro-N-[4-isopropyl-2-(trifluoromethyl)phenyl]-4-oxo-1H-quinoline-3-carboxamide]
< 10	++ (between 25% to 100%)	CC(C)(C)c1cc2cc[nH]c2cc1NC(=O)c1c[nH]c2cc(C#N)ccc2c1=O [Compound 558, 7-cyano-4-oxo-N-(5-tert-butyl-1H-indol-6-yl)-1H-quinoline-3-carboxamide]
10 to 25	+ (<25%)	CC(C)(C)c1cc2cc[nH]c2cc1NC(=O)c1c[nH]c2c(C(F)(F)F)cccc2c1=O [Compound 559, 4-oxo-N-(5-tert-butyl-1H-indol-6-yl)-8-(trifluoromethyl)-1H-quinoline-3-carboxamide]
< 10	++ (between 25% to 100%)	COc1cc(NC(=O)c2c[nH]c3ccccc3c2=O)ccc1-n1c(C)ccc1C [Compound 560, N-[4-(2,5-dimethylpyrrol-1-yl)-3-methoxy-phenyl]-4-oxo-1H-quinoline-3-carboxamide]
< 10	++ (between 25% to 100%)	CC(C)(C)c1cc(F)c(NC(=O)c2c[nH]c3ccc(Cl)cc3c2=O)cc1O [Compound 561, 6-chloro-N-(2-fluoro-5-hydroxy-4-tert-butyl-phenyl)-4-oxo-1H-quinoline-3-carboxamide]
< 10	++ (between 25% to 100%)	O=C(Nc1ccc(N2CCCC2)cc1C(F)(F)F)c1c[nH]c2ccc(F)cc2c1=O [Compound 562, 6-fluoro-4-oxo-N-[4-pyrrolidin-1-yl-2-(trifluoromethyl)phenyl]-1H-quinoline-3-carboxamide]
< 10	++ (between 25% to 100%)	O=C(Nc1cc(O)cc(C(F)(F)F)c1)c1c[nH]c2ccccc2c1=O [Compound 563, N-[3-hydroxy-5-(trifluoromethyl)phenyl]-4-oxo-1H-quinoline-3-carboxamide]
< 10	++ (between 25% to 100%)	O=C(Nc1ccc(C2CCCCC2)c(O)c1)c1c[nH]c2ccccc2c1=O [Compound 564, N-(4-cyclohexyl-3-hydroxy-phenyl)-4-oxo-1H-quinoline-3-carboxamide]
< 10	++ (between 25% to 100%)	Cc1cccc2[nH]cc(C(=O)Nc3cc4[nH]ccc4cc3C(C)(C)C)c(=O)c12 [Compound 565, 5-methyl-4-oxo-N-(5-tert-butyl-1H-indol-6-yl)-1H-quinoline-3-carboxamide]
< 10	++ (between 25% to 100%)	COCCn1ccc2cc(C(F)(F)F)c(NC(=O)c3c[nH]c4ccc(F)cc4c3=O)cc21 [Compound 566, 6-fluoro-N-[1-(2-methoxyethyl)-5-(trifluoromethyl)indol-6-yl]-4-oxo-1H-quinoline-3-carboxamide]
< 10	++ (between 25% to 100%)	O=C(Nc1ccc(N2CCC[C@H]2C(=O)O)cc1C(F)(F)F)c1c[nH]c2ccccc2c1=O [Compound 567, (S)-1-[4-[(4-oxo-1H-quinolin-3-yl)carbonylamino]-3-(trifluoromethyl)phenyl]pyrrolidine-2-carboxylic acid]
< 10	++ (between 25% to 100%)	Cc1ccc2[nH]cc(C(=O)Nc3ccc(N4[C@H](C)CC[C@H]4C)cc3C(F)(F)F)c(=O)c2c1 [Compound 569, N-(4-((2R,5R)-2,5-dimethylpyrrolidin-1-yl)-2-(trifluoromethyl)phenyl)-6-methyl-4-oxo-1,4-dihydroquinoline-3-carboxamide]
< 10	++ (between 25% to 100%)	CC(C)c1cc(C(F)(F)F)c(NC(=O)c2c[nH]c3ccccc3c2=O)cc1OCc1ccccc1 [Compound 570, N-[5-benzyloxy-4-isopropyl-2-(trifluoromethyl)phenyl]-4-oxo-1H-quinoline-3-carboxamide]
< 10	+ (<25%)	COc1nc(NC(=O)c2c[nH]c3ccccc3c2=O)ccc1C(F)(F)F [Compound 571, N-[6-methoxy-5-(trifluoromethyl)-2-pyridyl]-4-oxo-1H-quinoline-3-carboxamide]
–	++ (between 25% to 100%)	C[C@@H]1CCCN1c1ccc(NC(=O)c2c[nH]c3ccccc3c2=O)c(C(F)(F)F)c1 [Compound 572, (R)-N-(4-(2-methylpyrrolidin-1-yl)-2-(trifluoromethyl)phenyl)-4-oxo-1,4-dihydroquinoline-3-carboxamide]
< 10	++ (between 25% to 100%)	CC(C)c1ccc(NC(=O)c2c[nH]c3c(F)cccc3c2=O)c(C(F)(F)F)c1 [Compound 573, 8-fluoro-N-[4-isopropyl-2-(trifluoromethyl)phenyl]-4-oxo-1H-quinoline-3-carboxamide]
< 10	++ (between 25% to 100%)	O=C(Nc1cc(O)cc(C(F)(F)F)c1)c1c[nH]c2ccc(F)cc2c1=O [Compound 574, 6-fluoro-N-[3-hydroxy-5-(trifluoromethyl)phenyl]-4-oxo-1H-quinoline-3-carboxamide]

EC50 [µM]	% Activity	SMILES
< 10	++ (between 25% to 100%)	CC(C)c1ccc(NC(=O)c2c[nH]c3ccccc3c2=O)cc1O [Compound 575, N-(3-hydroxy-4-isopropyl-phenyl)-4-oxo-1H-quinoline-3-carboxamide]
< 10	++ (between 25% to 100%)	Cc1ccc2c(=O)c(C(=O)Nc3cc4[nH]ccc4cc3C(F)(F)F)c[nH]c2c1 [Compound 576, 7-methyl-4-oxo-N-[5-(trifluoromethyl)-1H-indol-6-yl]-1H-quinoline-3-carboxamide]
< 10	++ (between 25% to 100%)	Cc1ccc(C(F)(F)F)cc1NC(=O)c1c[nH]c2ccccc2c1=O [Compound 577, N-[2-methyl-5-(trifluoromethyl)phenyl]-4-oxo-1H-quinoline-3-carboxamide]
< 10	++ (between 25% to 100%)	Cc1cccc2[nH]cc(C(=O)Nc3ccc(N4CCC(C)(C)C4)cc3C(F)(F)F)c(=O)c12 [Compound 578, N-[4-(3,3-dimethylpyrrolidin-1-yl)-2-(trifluoromethyl)phenyl]-5-methyl-4-oxo-1H-quinoline-3-carboxamide]
< 10	++ (between 25% to 100%)	O=C(Nc1ccc(OC(F)(F)F)c(N2CCCC2)c1)c1c[nH]c2ccccc2c1=O [Compound 579, 4-oxo-N-[3-pyrrolidin-1-yl-4-(trifluoromethoxy)phenyl]-1H-quinoline-3-carboxamide]
< 10	+ (<25%)	CC(C)(C)c1cc(C(C)(C)C)c(NC(=O)c2c[nH]c3c(C(F)(F)F)cccc3c2=O)cc1O [Compound 580, N-(5-hydroxy-2,4-ditert-butyl-phenyl)-4-oxo-8-(trifluoromethyl)-1H-quinoline-3-carboxamide]
< 10	++ (between 25% to 100%)	Cc1cccc2[nH]cc(C(=O)Nc3ccc(N4CCC[C@@H]4C)nc3C(F)(F)F)c(=O)c12 [Compound 581, (S)-5-methyl-N-(6-(2-methylpyrrolidin-1-yl)-2-(trifluoromethyl)pyridin-3-yl)-4-oxo-1,4-dihydroquinoline-3-carboxamide]
< 10	++ (between 25% to 100%)	Cc1cccc2[nH]cc(C(=O)Nc3ccc(N4C[C@@H]5CC[C@H]4C5)cc3C(F)(F)F)c(=O)c12 [Compound 582, N-(4-((1S,4R)-2-azabicyclo[2.2.1]heptan-2-yl)-2-(trifluoromethyl)phenyl)-5-methyl-4-oxo-1,4-dihydroquinoline-3-carboxamide]
< 10	++ (between 25% to 100%)	COc1ccc2c(=O)c(C(=O)Nc3cc(O)c(C(C)(C)C)cc3C(C)(C)C)c[nH]c2c1 [Compound 583, N-(5-hydroxy-2,4-ditert-butyl-phenyl)-7-methoxy-4-oxo-1H-quinoline-3-carboxamide]
< 10	++ (between 25% to 100%)	COc1ccc2[nH]cc(C(=O)Nc3cc(O)c(C4(C)CCCCC4)cc3F)c(=O)c2c1 [Compound 584, N-[2-fluoro-5-hydroxy-4-(1-methylcyclohexyl)-phenyl]-6-methoxy-4-oxo-1H-quinoline-3-carboxamide]
< 10	+++ (>100%)	CC(C)(C)c1cc(C(C)(C)C)c(NC(=O)c2c[nH]c3cccc(N)c3c2=O)cc1O [Compound 585, 5-amino-N-(5-hydroxy-2,4-ditert-butyl-phenyl)-4-oxo-1H-quinoline-3-carboxamide]
< 10	++ (between 25% to 100%)	CC(C)c1ccc(NC(=O)c2c[nH]c3cccc(O)c3c2=O)cc1O [Compound 587, 5-hydroxy-N-(3-hydroxy-4-isopropyl-phenyl)-4-oxo-1H-quinoline-3-carboxamide]
< 10	++ (between 25% to 100%)	Cc1cc(C(C)(C)C)c(O)cc1NC(=O)c1c[nH]c2cccc(O)c2c1=O [Compound 588, 5-hydroxy-N-(5-hydroxy-2-methyl-4-tert-butyl-phenyl)-4-oxo-1H-quinoline-3-carboxamide]
< 10	++ (between 25% to 100%)	CC(C)c1ccc(NC(=O)c2c[nH]c3cc(F)c(F)cc3c2=O)c(C(F)(F)F)c1 [Compound 589, 6,7-difluoro-N-[4-isopropyl-2-(trifluoromethyl)phenyl]-4-oxo-1H-quinoline-3-carboxamide]
< 10	+ (<25%)	CC(CO)(CO)c1ccc(NC(=O)c2c[nH]c3ccccc3c2=O)cc1 [Compound 590, N-[4-[2-hydroxy-1-(hydroxymethyl)-1-methyl-ethyl]phenyl]-4-oxo-1H-quinoline-3-carboxamide]
< 10	++ (between 25% to 100%)	CCc1cc2cc[nH]c2cc1NC(=O)c1c[nH]c2cccc(O)c2c1=O [Compound 591, N-(5-ethyl-1H-indol-6-yl)-5-hydroxy-4-oxo-1H-quinoline-3-carboxamide]

Source: patent publication US8614327B2 (Vertex Pharmaceuticals Incorporated, priority 2004, dated 2013)
